Measurements taken from ChEMBL document CHEMBL4609983, “Pan-specific and partially selective dye-labeled peptidic inhibitors of the polycomb paralog proteins” (Bioorg Med Chem, 2020).
Non-standard residues stand in square brackets, D forms with d. Residues, ends and D or L forms follow the SMILES beside them. *: point of attachment. X1 = O=C(O)c1cc(NC(=S)*)ccc1-c1c2ccc(=O)cc-2oc2cc(O)ccc12; Lys(Me3) = C[N+](C)(C)CCCC[C@H](N)C(=O)O; Benzoyl(4-Br) = O=C(c1ccc(Br)cc1)*; Gly(cPent) = N[C@H](C(=O)O)C1CCCC1; Abu = CC[C@H](N)C(=O)O

Tests used:
[1] = molecular target: T1, Chromobox protein homolog 2 (Homo sapiens, UniProt Q14781); assay: Binding affinity to CBX2 (unknown origin) assessed as dissociation constant by fluorescence polarization analysis
T1 sequence (Q14781 whole entry): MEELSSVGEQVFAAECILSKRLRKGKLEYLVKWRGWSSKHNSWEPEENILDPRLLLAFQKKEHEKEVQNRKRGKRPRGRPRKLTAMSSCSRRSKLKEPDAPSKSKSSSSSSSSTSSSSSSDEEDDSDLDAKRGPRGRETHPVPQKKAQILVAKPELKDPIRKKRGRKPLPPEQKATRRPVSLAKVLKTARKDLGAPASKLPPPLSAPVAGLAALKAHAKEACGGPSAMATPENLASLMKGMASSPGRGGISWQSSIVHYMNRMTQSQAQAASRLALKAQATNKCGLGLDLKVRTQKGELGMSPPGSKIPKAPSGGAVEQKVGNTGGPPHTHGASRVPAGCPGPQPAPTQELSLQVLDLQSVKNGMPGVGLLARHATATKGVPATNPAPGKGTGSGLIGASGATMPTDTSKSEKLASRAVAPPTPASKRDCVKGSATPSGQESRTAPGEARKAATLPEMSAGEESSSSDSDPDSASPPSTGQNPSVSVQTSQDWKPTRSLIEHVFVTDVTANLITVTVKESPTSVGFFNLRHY

[2] = molecular target: T2, Chromobox protein homolog 6 (Homo sapiens, UniProt O95503); assay: Binding affinity to CBX6 (unknown origin) assessed as dissociation constant by fluorescence polarization analysis
T2 sequence (O95503 whole entry): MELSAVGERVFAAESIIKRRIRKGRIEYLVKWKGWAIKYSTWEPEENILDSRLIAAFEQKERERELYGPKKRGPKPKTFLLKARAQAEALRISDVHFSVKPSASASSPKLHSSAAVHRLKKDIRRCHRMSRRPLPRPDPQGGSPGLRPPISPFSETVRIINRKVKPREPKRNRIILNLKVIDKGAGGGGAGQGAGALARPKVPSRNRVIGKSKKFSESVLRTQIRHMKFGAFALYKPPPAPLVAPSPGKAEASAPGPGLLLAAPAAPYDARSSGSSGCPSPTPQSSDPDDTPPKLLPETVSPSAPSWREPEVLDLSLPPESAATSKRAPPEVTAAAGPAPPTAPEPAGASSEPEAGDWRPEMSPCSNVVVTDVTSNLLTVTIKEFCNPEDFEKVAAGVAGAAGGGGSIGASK

[3] = molecular target: T3, Chromobox protein homolog 8 (Homo sapiens, UniProt Q9HC52); assay: Binding affinity to CBX8 (unknown origin) assessed as dissociation constant by fluorescence polarization analysis
T3 sequence (Q9HC52 whole entry): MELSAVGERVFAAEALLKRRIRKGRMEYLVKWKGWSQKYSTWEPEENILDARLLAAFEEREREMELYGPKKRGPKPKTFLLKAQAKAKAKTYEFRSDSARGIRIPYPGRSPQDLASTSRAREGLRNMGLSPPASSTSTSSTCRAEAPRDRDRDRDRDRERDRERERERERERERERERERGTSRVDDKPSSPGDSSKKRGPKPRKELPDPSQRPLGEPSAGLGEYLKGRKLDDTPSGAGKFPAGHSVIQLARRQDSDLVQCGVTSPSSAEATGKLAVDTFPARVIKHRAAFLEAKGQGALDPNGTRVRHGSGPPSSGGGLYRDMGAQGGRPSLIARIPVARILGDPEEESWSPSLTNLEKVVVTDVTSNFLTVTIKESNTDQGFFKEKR

[4] = molecular target: T4, E3 SUMO-protein ligase CBX4 (Homo sapiens, UniProt O00257); assay: Binding affinity to CBX4 (unknown origin) assessed as dissociation constant by fluorescence polarization analysis
T4 sequence (O00257 whole entry): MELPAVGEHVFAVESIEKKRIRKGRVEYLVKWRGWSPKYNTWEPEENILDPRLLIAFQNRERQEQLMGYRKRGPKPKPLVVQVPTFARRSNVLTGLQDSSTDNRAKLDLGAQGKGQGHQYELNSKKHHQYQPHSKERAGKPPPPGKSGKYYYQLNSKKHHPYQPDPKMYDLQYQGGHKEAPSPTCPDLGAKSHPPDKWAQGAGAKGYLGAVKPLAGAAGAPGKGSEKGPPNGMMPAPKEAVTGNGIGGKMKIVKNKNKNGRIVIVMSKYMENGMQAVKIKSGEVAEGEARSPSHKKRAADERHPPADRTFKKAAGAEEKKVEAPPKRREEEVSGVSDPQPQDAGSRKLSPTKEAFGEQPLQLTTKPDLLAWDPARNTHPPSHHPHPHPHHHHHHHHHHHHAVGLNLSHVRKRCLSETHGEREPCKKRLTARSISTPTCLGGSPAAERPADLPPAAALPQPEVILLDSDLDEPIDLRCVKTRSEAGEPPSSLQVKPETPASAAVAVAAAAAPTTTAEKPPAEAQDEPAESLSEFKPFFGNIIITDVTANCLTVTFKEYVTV

[5] = molecular target: Chromobox protein homolog 1 (Homo sapiens, UniProt P83916); assay: Binding affinity to CBX1 (unknown origin) assessed as dissociation constant by fluorescence polarization analysis
[6] = molecular target: T5, Chromobox protein homolog 7 (Homo sapiens, UniProt O95931); assay: Binding affinity to CBX7 (unknown origin) assessed as dissociation constant by fluorescence polarization analysis
T5 sequence (O95931 whole entry): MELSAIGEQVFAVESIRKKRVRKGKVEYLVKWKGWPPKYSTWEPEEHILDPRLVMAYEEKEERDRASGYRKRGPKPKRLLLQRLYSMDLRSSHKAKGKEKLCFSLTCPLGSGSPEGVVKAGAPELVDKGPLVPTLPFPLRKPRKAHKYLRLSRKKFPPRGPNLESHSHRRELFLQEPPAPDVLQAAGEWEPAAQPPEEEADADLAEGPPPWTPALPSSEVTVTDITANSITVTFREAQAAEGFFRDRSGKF

Homo sapiens [7] = species on record: Homo sapiens; assay: Selectivity ratio of Kd for CBX4 (unknown origin) to Kd for CBX8 (unknown origin)
Homo sapiens [8] = species on record: Homo sapiens; assay: Selectivity ratio of Kd for CBX7 (unknown origin) to Kd for CBX8 (unknown origin)
Homo sapiens [9] = species on record: Homo sapiens; assay: Selectivity ratio of Kd for CBX7 (unknown origin) to Kd for CBX6 (unknown origin)
Homo sapiens [10] = species on record: Homo sapiens; assay: Selectivity ratio of Kd for CBX1 (unknown origin) to Kd for CBX8 (unknown origin)
Homo sapiens [11] = species on record: Homo sapiens; assay: Selectivity ratio of Kd for CBX2 (unknown origin) to Kd for CBX8 (unknown origin)
Homo sapiens [12] = species on record: Homo sapiens; assay: Selectivity ratio of IC50 for CBX8 (unknown origin) to IC50 for CBX7 (unknown origin)
Homo sapiens [13] = species on record: Homo sapiens; assay: Selectivity ratio of IC50 for CBX6 (unknown origin) to IC50 for CBX7 (unknown origin)
[14] = molecular target: T2, Chromobox protein homolog 6; assay: Inhibition of CBX6 (unknown origin) assessed as […] by competitive FP assay
[15] = molecular target: T3, Chromobox protein homolog 8; assay: Inhibition of CBX8 (unknown origin) assessed as […] by competitive FP assay
[16] = molecular target: T5, Chromobox protein homolog 7; assay: Inhibition of CBX7 (unknown origin) assessed as […] by competitive FP assay
TOV21G = assay: Decrease in cell viability in human TOV21G cells by MTT assay; type: cell-based
[17] = Drug uptake in human PC3 cells assessed as endosomal entrapment by measuring characteristic punctate dots in the cytoplasm at 10 uM by cell imaging analysis; type: ADME, cell-based; conditions: pc-3, 10 µM
[18] = Drug uptake in nucleus of human TOV21G cells by live cell imaging analysis; type: ADME, cell-based
[19] = Drug uptake in cytoplasm of human PC3 cells by live cell imaging analysis; type: ADME, cell-based; conditions: pc-3
[20] = Drug uptake in nucleus of human PC3 cells by live cell imaging analysis; type: ADME, cell-based; conditions: pc-3
[21] = Drug uptake in human TOV21G cells assessed as endosomal entrapment by measuring characteristic punctate dots in the cytoplasm at 10 uM by cell imaging analysis; type: ADME, cell-based
[22] = Drug uptake in cytoplasm of human TOV21G cells by live cell imaging analysis; type: ADME, cell-based

Chromobox protein homolog 1, sequence (P83916 whole entry): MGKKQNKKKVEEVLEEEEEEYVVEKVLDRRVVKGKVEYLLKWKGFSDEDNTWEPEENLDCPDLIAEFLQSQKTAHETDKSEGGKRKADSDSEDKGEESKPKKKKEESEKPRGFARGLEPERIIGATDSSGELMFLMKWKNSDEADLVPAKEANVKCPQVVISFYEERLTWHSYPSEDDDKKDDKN

SMILES | Kd [1] [µM] | Kd [2] [µM] | Kd [3] [µM] | Kd [4] [µM] | Kd [5] [µM] | Kd [6] [µM] | IC50 [14] [µM] | IC50 [15] [µM] | IC50 [16] [µM] | Activity (TOV21G) | also measured
CC(=O)N[C@@H](Cc1ccccc1)C(=O)N[C@@H](Cc1ccccc1)C(=O)N[C@@H](C)C(=O)N[C@@H](CC(C)C)C(=O)N[C@@H](CCCC[N+](C)(C)C)C(=O)N[C@@H](CO)C(=O)N[C@@H](CCC(=O)O)C(=O)N[C@@H](CCCCNC(=S)Nc1ccc(-c2c3ccc(=O)cc-3oc3cc(O)ccc23)c(C(=O)O)c1)C(N)=O (Ac-FFAL[Lys(Me3)]SEK(X1)-NH2) | 18 | 1 | 2.6 | 15 | 110 | 1.5 |  |  |  |  | 
CC[C@H](NC(=O)[C@H](Cc1ccccc1)NC(=O)[C@H](Cc1ccccc1)NC(C)=O)C(=O)N[C@H](C(=O)N[C@@H](CCCC[N+](C)(C)C)C(=O)N[C@@H](CO)C(=O)N[C@@H](CCC(=O)O)C(=O)N[C@@H](CCCCNC(=S)Nc1ccc(-c2c3ccc(=O)cc-3oc3cc(O)ccc23)c(C(=O)O)c1)C(N)=O)C1CCCC1 (Ac-FF[Abu][Gly(cPent)][Lys(Me3)]SEK(X1)-NH2) | 10 | 0.4 | 0.7 | 11.3 | 99 | 1.5 |  |  |  |  | Selectivity ratio (Homo sapiens [7]): 14 to 135; Selectivity ratio (Homo sapiens [8]): 2; Selectivity ratio (Homo sapiens [9]): 4; Selectivity ratio (Homo sapiens [10]): 14 to 135; Selectivity ratio (Homo sapiens [11]): 14 to 135
C[C@H](NC(=O)[C@H](Cc1ccccc1)NC(=O)c1ccc(Br)cc1)C(=O)N[C@@H](Cc1ccc(O)cc1)C(=O)N[C@@H](CCCC[N+](C)(C)C)C(=O)N[C@@H](CO)C(N)=O ({Benzoyl(4-Br)}-FAY[Lys(Me3)]S-NH2) |  |  |  |  |  |  | 16 | 42 | 2.3 |  | Ratio IC50 (Homo sapiens [12]): 18; Ratio IC50 (Homo sapiens [13]): 7
C[C@H](NC(=O)[C@H](Cc1ccccc1)NC(=O)c1ccc(Br)cc1)C(=O)N[C@@H](Cc1ccc(O)cc1)C(=O)N[C@@H](CCCC[N+](C)(C)C)C(=O)N[C@@H](CO)C(=O)N[C@@H](CCC(=O)O)C(N)=O ({Benzoyl(4-Br)}-FAY[Lys(Me3)]SE-NH2) |  |  |  |  |  |  | 6 | 12 | 2 | Non-Toxic | 
C[C@H](NC(=O)[C@H](Cc1ccccc1)NC(=O)c1ccc(Br)cc1)C(=O)N[C@@H](Cc1ccc(O)cc1)C(=O)N[C@@H](CCCC[N+](C)(C)C)C(=O)N[C@@H](CO)C(=O)N[C@@H](CCC(=O)O)C(=O)N[C@@H](CCCCNC(=S)Nc1ccc(-c2c3ccc(=O)cc-3oc3cc(O)ccc23)c(C(=O)O)c1)C(N)=O ({Benzoyl(4-Br)}-FAY[Lys(Me3)]SEK(X1)-NH2) |  | 0.047 | 0.624 |  | 4.75 | 0.012 |  |  |  | Toxic | Drug uptake [17]: Active; Drug uptake [18]: Not Active; Drug uptake [19]: Not Active; Drug uptake [20]: Not Active; Drug uptake [21]: Active; Drug uptake [22]: Not Active
